Test results as given in patent US4300557A, “Method for treating intraocular malignancies” (The United States of America as represented by the …, priority 1980, dated 1981).
“And” between values parts separate entries of the source, which are not always exact repeats. Identical values can stand only once. Like-named read-outs stand apart in the source and are kept apart here.

Columns and labels:
[1] = Release of BCNU from silicone balloons into water; format: physicochemical
Method: Into one balloon prepared as in Example 1 was injected 0.15 ml. of 1% ethanol containing 0.6 mg. of BCNU and into a second balloon 0.15 ml. of 10% ethanol containing 0.5 mg of BCNU.
Each balloon was placed in a scintillation vial containing 5 ml of water and shaken at 37° C. in an automatic shaker. At specified time intervals, the aqueous liquid was removed from the vials containing the balloons. The amount of BCNU dissolved in the water was determined by spectroscopic analysis (absorbance at 232 nm). The water in each scintillation vessel was replaced with 5 ml. of fresh water. […] Results for both ethanolic solutions were as in FIG. 2. (- - -).
BCNU (7.5 mg/0.15 ml sesame oil) was injected into a silicone balloon which was placed in a flask with 5 ml of distilled water and shaken in an automatic shaker at 37° C. The procedure of Example 3(a) was repeated for as many time as positive absorption at 232 nm was recorded. When the experiment had to be interrupted overnight, the dried silicone balloon containing BCNU in sesame oil was stored at -15° C.
BCNU in absolute ethanol solution (13 mg/0.15 ml, 20 mg/0.15 ml, and 60 mg/0.15 ml) was injected in each of three silicone balloons. Release of BCNU from the balloon was followed as in Example 3. Results of this experiment are shown in FIG. 3, in which (--. --. --.) represents data for the solution containing 13 mg of BCNU, (- - -) the solution containing 20 mg and (--) the solution containing 60 mg. A sharp drop in the BCNU release rate after 3-4 hours, indicated by the arrow in the Figure, is correlated with diffusion of all of the ETOH from the balloons.

Brown-Pearce epithelioma = assay: In vivo testing in rabbits with intracameral Brown-Pearce epithelioma, clinical results; design: species or system New Zealand female albino rabbits; reduction in tumor growth: dose or concentration left out as unconfirmed; conditions: for Day Tumor Destroyed Whole Eye, Treated Eye: * eye not yet destroyed by day of enucleation
From the text: Preoperative examination of 28 eyes in 14 New Zealand femal albino rabbits weighing 2.0 to 2.5 kg included biomicroscopy, tonotometry, and indirect ophthalmoscopy. All animals had normal eyes. Both eyes of each animal were inoculated intracamerally with Brown-Pearce epithelioma tissue by the technique at 993 of Liu et al., Invest. Ophthalmol Visual Sci., Vol. 17 (1978).
Three days after tumor tissue implantation, a silicone device described in Example 1 was implanted episclerally in each eye. Animals were anesthetized with sodium pentobarbital 24 mg/kg body weight administered intravenously. After routine preparation of the rabbit and the eyes, a pocket beneath the conjunctiva and Tenon's capsule was made in the upper temporal quadrant of the eye. The silicone device was inserted into the pocket but the small tube remained accessible to permit injection of test substance. Two 7-0 silk sutures were applied on both shoulders of the silicone device and on the episcleral tissue at the pars plana to hold the device in position. The conjunctiva was closed with two 7-0 silk sutures. […] 5. The injecting tube was fixed on the upper fornix.
Seven animals (Group 1A) received 3.0 mg of BCNU in 0.15 ml of sesame oil in one eye on the third, sixth, and ninth days after tumor implantation (total dose 9.0 mg). Three animals (Group 1B) received 12.0 mg of BCNU in 0.15 ml of sesame oil on the same schedule (total dose 36.0/mg). […] The fellow eyes served as controls and received diluent only.
Ocular examinations were made on alternate days during the 20 days following tumor implantation; at that time all eyes were enucleated. The effectiveness of treatment was measured by (1) comparing the extent of tumor growth in the anterior chamber of treated and control eyes, (2) noting the occurrence of distortion and perforation of the globe due to tumor growth, (3) weighing all eyes following enucleation, and (4) comparing the histopathologic changes in the eyes.
Clinical results, tabulated below, indicate the day on which the tumor occupied the anterior chamber and the weight of the enucleated eyes. The first day was the day on which tumor tissue was implanted.

[2] = Solubility and stability of BCNU in vehicles (statements); format: physicochemical
[3] = cited from earlier work
[4] = Group IA: 3.0 mg BCNU in sesame oil, days 3, 6 and 9
[5] = Group IB: 12.0 mg BCNU in sesame oil, days 3, 6 and 9
[6] = Group II: 13.0 mg BCNU in pure ethanol, days 3 and 6

O=NN(CCCl)C(=O)NCCCl [BCNU, 1,3-bis-(2-chloroethyl)-1-nitrosourea]
rate of BCNU release from silicone balloons into water ([1]; 1% or 10% ethanol, 37° C.): rapidly decreasing rate
BCNU release rate after alcohol depletion, comparison of the three balloons ([1]; 13, 20 and 60 mg/0.15 ml absolute ethanol): about the same for the three balloons
depletion of BCNU from silicone microballoons ([1]; BCNU in sesame oil): depleted rather rapidly
rate of BCNU release from silicone microballoons into water ([1]; BCNU in sesame oil, 37° C.): variable rate
BCNU remaining inside balloons after alcohol depletion ([1]; absolute ethanol): essentially pure BCNU remained inside the balloons
time of sharp drop in the BCNU release rate ([1]; absolute ethanol, 13, 20 and 60 mg/0.15 ml, 37° C.): 3 to 4 h
rate of BCNU diffusion from balloon into water after alcohol depletion ([1]; absolute ethanol, after the alcohol has left): relatively constant rate
duration of BCNU release ([1]; balloon containing the largest amount (60 mg/0.15 ml absolute ethanol)): released it over the longest time
reduction of tumor growth (Brown-Pearce epithelioma; 3.0 or 12.0 mg BCNU in 0.15 ml sesame oil, days 3, 6 and 9): Significant reduction of tumor growth
therapeutic results (Brown-Pearce epithelioma; BCNU in absolute ethanol, silicone balloons 0.1-0.2 mm wall): good therapeutic results
Aver. wt of eyes after enucleation, treated eye (Brown-Pearce epithelioma; Group I (IA and IB), sesame oil, 10 treated eyes): 5.2 g
growth of the implanted tumor tissue in the anterior chamber (Brown-Pearce epithelioma; Group I, BCNU in sesame oil): slowed in all 10 eyes
Aver. wt of eyes after enucleation, treated eye (Brown-Pearce epithelioma; Group IA, 3.0 mg in sesame oil): 5.7 g
eyes retaining normal shape and size without distortion for 15 days (Brown-Pearce epithelioma; Group IA, three doses of 3.0 mg in sesame oil, 15 days after tumor implantation): six eyes of the seven
Day Tumor Occupied Anterior Chamber, Treated Eye (Brown-Pearce epithelioma; [4]): 13 days and 14 days and 12 days and 18 days
Day Tumor Destroyed Whole Eye, Treated Eye (Brown-Pearce epithelioma; [4]): 18 days and 19 days and 17 days and 16 days and > 18 days and 15 days
Aver. wt of eyes after enucleation, treated eye (Brown-Pearce epithelioma; Group IB, 12.0 mg in sesame oil): 4.1 g
eyes retaining normal shape and size without distortion for 19 days (Brown-Pearce epithelioma; Group IB, three doses of 12.0 mg in sesame oil, 19 days after tumor implantation): Two eyes of the three
Day Tumor Occupied Anterior Chamber, Treated Eye (Brown-Pearce epithelioma; [5]): 20 days and 17 days and 11 days
Weight of Eyes After Enucleation, Treated Eye (Brown-Pearce epithelioma; [5]): 3.5 g and 5.2 g
Day Tumor Destroyed Whole Eye, Treated Eye (Brown-Pearce epithelioma; [5]): > 20 days and 20 days and 17 days
average weight of the four treated eyes after enucleation (Brown-Pearce epithelioma; Group II, BCNU in pure ethanol): 3.1 gm
response of treated eyes (Brown-Pearce epithelioma; Group II, BCNU in pure ethanol): Each of the four eyes treated showed good response
tumor tissue growth in the anterior chamber on the fifteenth day (Brown-Pearce epithelioma; Group II, BCNU in pure ethanol, day 15): almost completely arrested in three of the four treated eyes
eyes retaining normal shape and size on the twentieth day (Brown-Pearce epithelioma; Group II, BCNU in pure ethanol, day 20): all four treated eyes retained their normal shape and size
Aver. wt of eyes after enucleation, treated eye (Brown-Pearce epithelioma; Group II, pure ethanol): 3.1 g
Day Tumor Occupied Anterior Chamber, Treated Eye (Brown-Pearce epithelioma; [6]): 18 days and 15 days and 20 days
Weight of Eyes After Enucleation, Treated Eye (Brown-Pearce epithelioma; [6]): 2.8 g and 3.2 g and 3.3 g
Day Tumor Destroyed Whole Eye, Treated Eye (Brown-Pearce epithelioma; [6]): > 20 days and > 29 days
reduction in tumor growth (Brown-Pearce epithelioma; absolute ethanol (so in the source), days 3 and 6): greatest reduction in tumor growth
Aver. wt. of eyes after enucleation, treated eye (Brown-Pearce epithelioma; all eyes (Groups I and II)): 4.6 g
solubility in absolute ethanol ([2]; absolute ethanol as solvent for BCNU): excellent solvent for BCNU
solubility in sesame oil ([2]; sesame oil): fairly soluble
stability in sesame oil ([2]; sesame oil): relatively stable
reported half-life of BCNU in water ([3]; Montgomery et al., J. Med. Chem. 1967): 5.08 h
reported half-life of BCNU in water ([3]; Schmidt et al., supra): 2.33 h
Decomposition of BCNU in water ([3]; in water, of the order of): 140 to 305 min
